# Measurements published in PMC10349806 (Nature Communications, 2023).
# Where “and” joins values, the source holds several entries; their conditions need not be identical. Equal entries are not always repeated.
# Biological target: PfCRT^Dd2 (Plasmodium falciparum, UniProt Q9N623, A220S/I356T/K76T/M74I/N326S/N75E/Q271E/R371I)
# Assay: Drug uptake assay, X. laevis oocytes expressing PfCRT^Dd2
# Format: cell-based
# Settings: for Kd: KS^CQ; for Vmax: CQ vs protons
# Method: Oocytes were obtained as described previously. Briefly, adult (>2 years old) female X. laevis frogs (NASCO) were anesthetized in a cooled solution of ethyl 3-amino benzoate methanesulfonate (0.1%, w/v), followed by a surgical removal of parts of the ovary. The ovary lobes were carefully dissected and small pieces of oocytes were incubated in Ca^2+-free ND96 buffer (96 mM NaCl, 2 mM KCl, 1 mM MgCl2 buffered with 5 mM HEPES/NaOH, pH 7.5) supplemented with collagenase D (0.1%, w/v; Roche), BSA (0.5%, w/v), and 9 mm Na2HPO4 at 18 °C for 14-16 h while gentle shaking. After incubation, the oocytes were carefully washed several times with ND96 buffer (96 mM NaCl, 2 mM KCl, 1.8 mM CaCl2, 1 mM MgCl2 buffered with 5 mM HEPES/NaOH, pH 7.5) supplemented with 100 mg l^−1 gentamycin). Defolliculated and healthy-looking stage V-VI oocytes were manually selected for RNA microinjection. The RNA was generated as following: The codon-optimized sequences of PfCRT variants were cloned into the pSP64T expression vector. After vector linearization using the restriction endonucleases BamHI or SalI (New England Biolabs), transcription was performed using the in vitro SP6 mMessage mMachine Kit (Ambion)[34]. The obtained RNA was kept at −80 °C and diluted with nuclease-free water to a concentration of 0.6 μg μl^−1. Precision-bore glass capillary tubes (3.5-inch glass capillaries; Drummond Scientific Co.) were pulled on a vertical puller (P-87 Flaming/Brown micropipette puller, Sutter Instrument Co.), graduated, and placed on a microinjector (Nanoject II Auto-Nanoliter Injector, Drummond Scientific Co.). 50 nl of nuclease-free water alone (control oocytes) or 50 nl of 0.6 μg μl^−1 RNA were injected under stereomicroscopic control. Injected oocytes were incubated for 46–72 h at 18 °C with twice-daily buffer changes before usage in experiments.
# Drug uptake assays were performed as described previously[21],[22],[24],[34]. […] The direction of radio-labeled drug transport is here from the mostly acidic extracellular solution (pH 4.5 or 6.0, as indicated) into the oocyte cytosol (pH ∼ 7.2), which corresponds to the efflux of drug from the acidic digestive vacuole (pH 5.2) into the parasite cytoplasm (pH 7.2). The topology of PfCRT in the oolemma is such that both the N- and C-terminus face the extracellular milieu[3],[22]. In the parasite, the N- and C-terminus face the lumen of the digestive vacuole. […] For determination of the amount of drug uptake for each oocyte, the reaction medium was removed and the oocytes were washed three times with 2 ml of ice-cold ND96 buffer. Each oocyte was individually transferred to a scintillation vial containing 5% sodium dodecyl sulfate (200 μl) for lysis. […] Oocytes that were injected with water instead of RNA were analyzed in parallel, representing the uptake of a drug by diffusion and/or endogenous permeation pathways. The resulting value represents the “background“ level of drug accumulation in oocytes (in-depth discussion in[22]). The specific PfCRT-mediated uptake was determined by subtracting the corresponding background value measured in water-injected oocytes from that of PfCRT-expressing oocytes. In all cases, at least three separate experiments were performed on oocytes from different frogs (biological replicate), and for each condition in an experiment, measurements were made from 10 oocytes per treatment. For pH 5.5, 6.0, and 6.5, ND96 was buffered with 5 mM MES/Tris base. For pH 4.5, 5 mM Homo-Pipes was used as a buffer and 5 mM HEPES for uptake at pH 7.0.
# [1] = mixed (partial) model, mean ± SEM
# [2] = PfCRTDd2, 50 µM CQ, 1 h, mean ± SEM
# Sequence of PfCRT^Dd2 (Q9N623 whole entry A220S/I356T/K76T/M74I/N326S/N75E/Q271E/R371I): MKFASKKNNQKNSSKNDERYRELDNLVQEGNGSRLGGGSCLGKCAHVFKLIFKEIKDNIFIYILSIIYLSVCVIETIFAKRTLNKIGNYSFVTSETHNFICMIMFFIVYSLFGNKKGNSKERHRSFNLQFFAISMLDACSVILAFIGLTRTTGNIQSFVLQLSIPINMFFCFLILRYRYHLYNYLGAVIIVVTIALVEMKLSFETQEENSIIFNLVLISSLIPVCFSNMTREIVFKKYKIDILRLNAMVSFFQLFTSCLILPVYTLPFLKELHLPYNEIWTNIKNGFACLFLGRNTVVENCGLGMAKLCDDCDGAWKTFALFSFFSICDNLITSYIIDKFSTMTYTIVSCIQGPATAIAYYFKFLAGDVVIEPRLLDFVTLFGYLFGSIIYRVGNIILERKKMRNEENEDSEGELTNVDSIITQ
smiles,measurement,setting,value
"CCN(CC)CCCC(C)Nc1ccnc2cc(Cl)ccc12 (centres unmarked) [CQ, chloroquine]",v-1 pH 6.0,"500 µM CQ, Lineweaver-Burk",0.05 (pmol oocyte-1 h-1)-1
same,inflection point in the weakly acidic pH range,CQ transport vs pH,~ 5.2 pH
same,PfCRTDd2 transport activity pH 4.5,"CQ uptake, X. laevis oocytes expressing PfCRTDd2, pH 4.5, individual replicates (Fig 6b)",0.81 pmol oocyte-1 h-1 and 1.13 pmol oocyte-1 h-1 and 0.91 pmol oocyte-1 h-1 and 1.51 pmol oocyte-1 h-1 and 1.64 pmol oocyte-1 h-1 and 1.57 pmol oocyte-1 h-1
same,PfCRTDd2 transport activity pH 4.5,"CQ uptake, X. laevis oocytes expressing PfCRTDd2, pH 4.5, individual replicates (source data Fig 1d left)",0.89 pmol oocyte-1 h-1 and 0.81 pmol oocyte-1 h-1 and 1.13 pmol oocyte-1 h-1 and 0.91 pmol oocyte-1 h-1 and 1.51 pmol oocyte-1 h-1 and 1.64 pmol oocyte-1 h-1
same,PfCRTDd2 transport activity pH 6.0,"CQ uptake, X. laevis oocytes expressing PfCRTDd2, pH 6.0, individual replicates (Fig 6b)",3.69 pmol oocyte-1 h-1 and 3.79 pmol oocyte-1 h-1 and 3.00 pmol oocyte-1 h-1 and 3.40 pmol oocyte-1 h-1 and 3.90 pmol oocyte-1 h-1 and 6.11 pmol oocyte-1 h-1 and 4.28 pmol oocyte-1 h-1 and 5.58 pmol oocyte-1 h-1 and 6.47 pmol oocyte-1 h-1 and 3.37 pmol oocyte-1 h-1 and 3.28 pmol oocyte-1 h-1 and 4.53 pmol oocyte-1 h-1 and 3.68 pmol oocyte-1 h-1 and 5.95 pmol oocyte-1 h-1 and 11.50 pmol oocyte-1 h-1 and 6.00 pmol oocyte-1 h-1 and 4.23 pmol oocyte-1 h-1 and 6.19 pmol oocyte-1 h-1 and 4.62 pmol oocyte-1 h-1 and 6.53 pmol oocyte-1 h-1
same,PfCRTDd2 transport activity pH 6.0,"CQ uptake, X. laevis oocytes expressing PfCRTDd2, pH 6.0, individual replicates (source data Fig 1d left)",5.87 pmol oocyte-1 h-1 and 4.37 pmol oocyte-1 h-1 and 4.87 pmol oocyte-1 h-1 and 4.94 pmol oocyte-1 h-1 and 5.55 pmol oocyte-1 h-1 and 3.80 pmol oocyte-1 h-1 and 3.69 pmol oocyte-1 h-1 and 3.79 pmol oocyte-1 h-1 and 3.00 pmol oocyte-1 h-1 and 3.40 pmol oocyte-1 h-1 and 3.90 pmol oocyte-1 h-1 and 6.11 pmol oocyte-1 h-1 and 4.28 pmol oocyte-1 h-1 and 5.58 pmol oocyte-1 h-1 and 6.47 pmol oocyte-1 h-1 and 3.37 pmol oocyte-1 h-1 and 3.28 pmol oocyte-1 h-1 and 4.53 pmol oocyte-1 h-1 and 3.68 pmol oocyte-1 h-1 and 5.95 pmol oocyte-1 h-1
same,PfCRTDd2 transport activity pH 4.5 with preincubation 1 h at pH 4.5,"CQ uptake, independent samples",5.80 pmol oocyte-1 h-1 and 5.85 pmol oocyte-1 h-1 and 2.93 pmol oocyte-1 h-1
same,PfCRTDd2 transport activity pH 4.5 without preincubation,"CQ uptake, independent samples",5.79 pmol oocyte-1 h-1 and 5.26 pmol oocyte-1 h-1 and 2.99 pmol oocyte-1 h-1
same,Kd,[1],320 ± 100 µM
same,Kd,"noncompetitive (partial) model, called KM, mean ± SEM",220 ± 25 µM
same,Activity at pH 4.5,[2],1.20 ± 0.10 pmol h-1 oocyte-1
same,Activity at pH 6.0,[2],5.05 ± 0.23 pmol h-1 oocyte-1
same,R-value,"PfCRTDd2, CQ transport at pH 4.5 / pH 6.0",~ 0.2 and 0.24 ± 0.01
same,Vmax ± SEM,"PfCRT^Dd2, pH 4.5",14 ± 2 pmol h^−1 oocyte ^−1
same,Vmax ± SEM,"PfCRT^Dd2, pH 6.0",32 ± 2 pmol h^−1 oocyte ^−1
same,PfCRTDd2 R-value,"R-value from transport activity at pH 4.5 and pH 6.0, individual replicates (source data Fig 1d left)",0.23 and 0.27 and 0.25
same,PfCRTDd2 R-value,"R-value from transport activity at pH 4.5 and pH 6.0, oocytes expressing PfCRTDd2, source data Fig 1d left",0.25
same,pH of maximal CQ transport activity,"bell-shaped curve, pH 4.5 to 7.0, 50 µM CQ",6.2 ± 0.3 pH
same,"CQ transport activity, oocytes pre-treated 1 h at pH 4.5 vs untreated",in words,no significant differences
same,Vmax,[1],45 ± 9 pmol h^−1 oocyte^−1
same,α,"mixed (partial) model, factor by which KS values change when other substrate is bound",0.53 ± 0.26
same,β,"mixed (partial) model, factor by which Vmax is affected by the inhibitor",0.27 ± 0.06
same,Vmax,"noncompetitive (partial) model, mean ± SEM",40 ± 4 pmol h^−1 oocyte^−1
same,β,"noncompetitive (partial) model, factor by which Vmax is affected by bound proton",0.36 ± 0.02
same,PfCRTDd2 transport activity pH 4.5,"pH 4.5, individual replicates (Fig 6a)",0.82 pmol oocyte-1 h-1 and 2.03 pmol oocyte-1 h-1 and 1.25 pmol oocyte-1 h-1 and 0.75 pmol oocyte-1 h-1 and 1.02 pmol oocyte-1 h-1 and 0.89 pmol oocyte-1 h-1 and 0.81 pmol oocyte-1 h-1 and 1.13 pmol oocyte-1 h-1 and 0.91 pmol oocyte-1 h-1 and 1.51 pmol oocyte-1 h-1 and 1.64 pmol oocyte-1 h-1 and 1.57 pmol oocyte-1 h-1 and 1.05 pmol oocyte-1 h-1 and 1.43 pmol oocyte-1 h-1
same,PfCRTDd2 transport activity pH 4.5,"pH 4.5, individual replicates, Fig 6b",0.82 pmol oocyte-1 h-1 and 2.03 pmol oocyte-1 h-1 and 1.25 pmol oocyte-1 h-1 and 0.75 pmol oocyte-1 h-1 and 1.02 pmol oocyte-1 h-1 and 0.89 pmol oocyte-1 h-1 and 1.05 pmol oocyte-1 h-1 and 1.43 pmol oocyte-1 h-1
same,PfCRTDd2 transport activity pH 4.5,"pH 4.5, oocytes expressing PfCRTDd2, individual replicate values, source data Fig 1d left",1.57 pmol oocyte-1 h-1
same,PfCRTDd2 transport activity pH 4.5,"pH 4.5, single replicates, Fig 1d left",2.03 pmol oocyte-1 h-1 and 1.25 pmol oocyte-1 h-1 and 0.75 pmol oocyte-1 h-1 and 1.02 pmol oocyte-1 h-1 and 1.05 pmol oocyte-1 h-1 and 1.43 pmol oocyte-1 h-1 and 0.82 pmol oocyte-1 h-1
same,PfCRTDd2 R-value,"pH 4.5 vs pH 6.0, Fig 1d left",0.27 and 0.30 and 0.19 and 0.23 and 0.17 and 0.15
same,PfCRTDd2 transport activity pH 6.0,"pH 6.0, individual replicates, Fig 6b",5.64 pmol oocyte-1 h-1 and 4.84 pmol oocyte-1 h-1 and 7.93 pmol oocyte-1 h-1 and 4.17 pmol oocyte-1 h-1 and 7.55 pmol oocyte-1 h-1 and 4.19 pmol oocyte-1 h-1 and 4.00 pmol oocyte-1 h-1 and 4.20 pmol oocyte-1 h-1 and 4.01 pmol oocyte-1 h-1 and 4.51 pmol oocyte-1 h-1 and 5.87 pmol oocyte-1 h-1 and 4.37 pmol oocyte-1 h-1 and 4.87 pmol oocyte-1 h-1 and 4.94 pmol oocyte-1 h-1 and 5.55 pmol oocyte-1 h-1 and 3.80 pmol oocyte-1 h-1 and 4.33 pmol oocyte-1 h-1 and 4.86 pmol oocyte-1 h-1 and 6.59 pmol oocyte-1 h-1 and 6.15 pmol oocyte-1 h-1 and 4.02 pmol oocyte-1 h-1 and 5.29 pmol oocyte-1 h-1 and 5.21 pmol oocyte-1 h-1
same,PfCRTDd2 transport activity pH 6.0,"pH 6.0, oocytes expressing PfCRTDd2, individual replicate values, source data Fig 1d left",11.50 pmol oocyte-1 h-1 and 6.00 pmol oocyte-1 h-1 and 4.23 pmol oocyte-1 h-1 and 6.19 pmol oocyte-1 h-1 and 4.62 pmol oocyte-1 h-1 and 6.53 pmol oocyte-1 h-1
same,PfCRTDd2 transport activity pH 6.0,"pH 6.0, single replicates, Fig 1d left",5.64 pmol oocyte-1 h-1 and 4.84 pmol oocyte-1 h-1 and 7.93 pmol oocyte-1 h-1 and 4.17 pmol oocyte-1 h-1 and 7.55 pmol oocyte-1 h-1 and 4.19 pmol oocyte-1 h-1 and 4.00 pmol oocyte-1 h-1 and 4.20 pmol oocyte-1 h-1 and 4.01 pmol oocyte-1 h-1 and 4.51 pmol oocyte-1 h-1 and 4.33 pmol oocyte-1 h-1 and 4.86 pmol oocyte-1 h-1 and 6.59 pmol oocyte-1 h-1 and 6.15 pmol oocyte-1 h-1 and 4.02 pmol oocyte-1 h-1 and 5.29 pmol oocyte-1 h-1 and 5.21 pmol oocyte-1 h-1
same,PfCRTDd2 R-value,ratio of activity pH 4.5 / pH 6.0,0.15 and 0.27 and 0.30 and 0.19 and 0.23 and 0.17
same,PfCRTDd2 R-value,"ratio of transport activity pH 4.5 to pH 6.0, individual replicates (Fig 6b)",0.27 and 0.25
same,PfCRTDd2 R-value,transport activity pH 4.5 relative to pH 6.0 (Fig 6a),0.15 and 0.27 and 0.30 and 0.19 and 0.23 and 0.25 and 0.17
